Structures can show the parent of a compound that is named as a salt. Where two headings read alike, the source gives them in different places.
Assay: Pharmacokinetic study of Icotinib hydrochloride and Polymorph Form II of Icotinib, oral suspension, plasma by HPLC
Type: in vivo
Conditions: fasted male SD rats, oral suspension in sodium carboxymethyl cellulose, dose equivalent to 50 mg/kg Icotinib
From the text: Pharmacokinetic Study of Icotinib Hydrochloride and the Polymorph Form II of Icotinib
Drugs and reagents: the Icotinib hydrochloride used in this study was of Crystalline Form I disclosed by the WO2010/003313. Polymorph Form II of Icotinib and Icotinib hydrochloride were ground to fine particles. The material content (purity) was not less than 99.0%. Sodium carboxymethyl cellulose was medical supply graded.
Experimental animals: SD rats were divided to the Icotinib hydrochloride group and a Polymorph Form II group.
Pharmaceutical preparation: the amount of each compound was weighed and then sodium carboxymethyl cellulose was added to result in the test compound's concentration of 0.5%. The solid mixture was then added to prepare a suspension thereof at a final concentration of […] in water.
Administration and sample collection: each suspension was administered orally to fasted SD rats at a dose equivalent to 50 mg/kg Icotinib in a dose volume of 5 ml/kg. 0.4 ml of blood was collected in EDTA-K pre anticoagulant tubes at time intervals of 0.5, 1, 1.5, 2, 4, 6, 8 and 24 hours after the administration of the test compound, centrifuged at 3000 rpm for 10 minutes, and 120 μl plasma was collected and kept in cold storage.
Samples were analyzed by high performance liquid chromatography. The chromatographic conditions utilized C18-silane bonded silica as stationary phase, 0.02 mol/L of sodium dihydrogen phosphate in acetonitrile (40:60, using sodium hydroxide solution to adjust pH to 5.0) as the mobile phase and a detection wavelength of 334 nm.

AUC(0-24)	AUC(0-∞)	Cmax	T1/2	Tmax	Tmax (hydrochloride)	AUC(0-inf) (male, SD, rat, po, 50 mg/kg)	half-life (male, SD, rat, po, 50 mg/kg)	AUC(0-t) (male, SD, rat, po, 50 mg/kg, read-out: AUC(0-24))	Cmax (male, SD, rat, po, 50 mg/kg, read-out: Cmax)	SMILES
62400 ± 30100 ng·h/mL	63000 ± 30000 ng·h/mL	5800 ± 2600 ng/mL	3.5 ± 0.6 h	4.5 ± 2.6 h						C#Cc1cccc(Nc2ncnc3cc4c(cc23)OCCOCCOCCO4)c1 [Polymorph Form II of Icotinib, Icotinib]
					1.3 ± 1.1 h	39800 ± 28500 ng·h/mL	3.1 ± 1.4 h	39200 ± 27600 ng·h/mL	4900 ± 2600 ng/mL	C#Cc1cccc(Nc2ncnc3cc4c(cc23)OCCOCCOCCO4)c1 [Icotinib hydrochloride]

— US9611272B2, “Polymorphic forms of icotinib and uses thereof” (BETTA PHARMACEUTICALS CO., LTD, priority 2013, dated 2017)
